The target of this assay is T1, angiotensin converting enzyme (ACE) (Homo sapiens, UniProt P12821).
T1 construct: purchased Dojindo Laboratories A502
In words: ACE inhibitory activity assay (ACE Kit-WST, A502, Dojindo Laboratories). It counts as biochemical. The following applies: for IC50: 3HB-GGG substrate, absorbance 450 nm, N.D. = ACE inhibitory activity was not detected in the test, read-out: IC50 concerning ACE activity.

T1 sequence (P12821 30-1306, species assumed): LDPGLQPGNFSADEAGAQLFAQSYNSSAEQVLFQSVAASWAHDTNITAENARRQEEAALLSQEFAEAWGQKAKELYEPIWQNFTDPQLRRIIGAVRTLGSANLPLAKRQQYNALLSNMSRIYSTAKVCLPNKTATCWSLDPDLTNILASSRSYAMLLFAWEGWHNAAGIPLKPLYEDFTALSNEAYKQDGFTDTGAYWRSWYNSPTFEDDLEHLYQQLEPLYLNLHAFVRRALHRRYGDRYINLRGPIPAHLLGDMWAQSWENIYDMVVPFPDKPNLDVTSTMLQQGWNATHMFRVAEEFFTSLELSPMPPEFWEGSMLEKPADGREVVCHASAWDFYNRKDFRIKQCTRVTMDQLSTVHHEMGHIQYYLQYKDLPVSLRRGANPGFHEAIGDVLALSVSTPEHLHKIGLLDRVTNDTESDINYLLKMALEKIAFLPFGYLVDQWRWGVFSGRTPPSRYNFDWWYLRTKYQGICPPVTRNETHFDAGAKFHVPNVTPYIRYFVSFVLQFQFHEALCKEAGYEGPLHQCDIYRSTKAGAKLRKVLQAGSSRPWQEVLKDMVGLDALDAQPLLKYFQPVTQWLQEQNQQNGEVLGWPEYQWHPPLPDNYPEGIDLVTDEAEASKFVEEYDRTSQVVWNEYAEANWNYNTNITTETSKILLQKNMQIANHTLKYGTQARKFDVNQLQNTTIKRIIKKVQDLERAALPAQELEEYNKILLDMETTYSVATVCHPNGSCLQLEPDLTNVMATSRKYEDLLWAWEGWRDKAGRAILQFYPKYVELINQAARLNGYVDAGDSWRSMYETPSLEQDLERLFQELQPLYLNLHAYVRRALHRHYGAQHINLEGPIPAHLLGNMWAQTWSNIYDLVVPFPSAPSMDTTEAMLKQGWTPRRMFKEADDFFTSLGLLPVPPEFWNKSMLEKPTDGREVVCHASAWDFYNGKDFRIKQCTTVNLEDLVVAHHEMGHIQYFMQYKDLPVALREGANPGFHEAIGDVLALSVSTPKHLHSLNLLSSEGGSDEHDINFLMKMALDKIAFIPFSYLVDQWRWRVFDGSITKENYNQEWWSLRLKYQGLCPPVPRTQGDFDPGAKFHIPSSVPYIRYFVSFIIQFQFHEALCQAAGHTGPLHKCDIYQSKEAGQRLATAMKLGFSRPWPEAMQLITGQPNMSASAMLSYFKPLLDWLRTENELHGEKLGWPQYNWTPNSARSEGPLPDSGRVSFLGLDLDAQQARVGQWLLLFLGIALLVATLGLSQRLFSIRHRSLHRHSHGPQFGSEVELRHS
Source text: ACE inhibitory activity can be quantitatively evaluated with the use of, for example, a commercially available kit for ACE inhibitory activity assay. […] For example, ACE inhibitory activity of a target sample (e.g., a compound) can be evaluated with the use of a commercially available kit for ACE inhibitory activity assay (ACE Kit-WST, A502, Dojindo Laboratories) in the manner described below. In principle, such kit enzymatically detects 3-hydroxybutyric acid (3HB) cleaved from 3-hydroxybutyryl-glycyl-glycyl-glycine (3HB-GGG) by ACE activity. In accordance with the instructions of the kit, a sample solution containing a test compound at a given concentration is prepared in a reaction vessel, and a control solution is prepared with the addition of the same volume of water instead of the sample solution in another reaction vessel. An enzyme reaction solution is added to each reaction vessel, and the reaction is then allowed to proceed, respectively. As a blank sample, a solution prepared with the addition of the same volume of water instead of the enzyme solution is subjected to the same treatment. The absorbance (450 nm) of the chromogenic indicator used in the enzymatic method generated together with 3HB cleaved from 3HB-GGG by ACE activity is measured. On the basis of the values measured for the sample, the control sample, and the blank sample, ACE inhibitory activity of each sample is determined using the formula shown below. Alternatively, ACE inhibitory activity of the target sample can be evaluated in the manner described below. A substrate peptide that is a mimic of a C-terminal region of angiotensin I (e.g., hippuryl-histidyl-leucine (HHL)) and a sample are mixed with each other in an appropriate buffer solution. ACE is added to the resulting mixture and an enzymatic reaction is performed under appropriate conditions (e.g., 37° C. and pH 8.3) for a given period of time. After the enzymatic reaction is terminated, a product generated from the substrate peptide (e.g., hippuric acid in the case of HHL) is quantitatively measured via analytical means, such as absorbance measurement, immunoanalysis such as ELISA or RIA, or chromatography analysis such as HPLC or LC-MS. A sample-free control and an ACE-free blank are subjected to the same experiment. On the basis of the values measured for the sample, the control sample, and the blank sample, ACE inhibitory activity of each sample is determined using the formula shown below. […]
In principle, such kit enzymatically detects 3-hydroxybutyric acid (3HB) cleaved from 3-hydroxybutyryl-glycyl-glycyl-glycine (3HB-GGG) by ACE activity. […] The absorbance (450 nm) of the chromogenic indicator used in the enzymatic method generated together with 3HB cleaved from 3HB-GGG by ACE activity was measured.

Consider `O=C(O)CCC(=O)N1CCC[C@H]1C(=O)O` [N-Succinyl-L-proline, N-succinyl-L-proline], for which the IC50 (as a rule, the concentration needed to halve the response being measured) was determined as 14.5 ± 5.3 µM. On to `N=C(N)NCCC[C@H](NC(=O)C1CSSC1)C(=O)O` [Asparaptine, asparaptine], for which the IC50 stood at 113 µM. Moreover, the “concentration at which ACE inhibitory activity is exerted” value (from the dose-response data) is on record as “exceeding 1 μM”.

In the case of `N[C@@H](CCN[C@@H](CCN1CC[C@H]1C(=O)O)C(=O)O)C(=O)O` [Nicotianamine, nicotianamine], the IC50 came to 18.7 ± 0.54 µM.

The record behind these values is US20180273503A1, “NOVEL ANGIOTENSIN CONVERTING ENZYME INHIBITOR” (RIKEN, priority 2015, published 2018).
